Holding throughout (type): cell-based
One data set relates to Ba/F3 (L858R + T790M). Put plainly: Cellular growth inhibition assay (CellTiter-Glo), Ba/F3 (L858R+T790M). To be noted: Mus musculus, BaF3, 72 h; 3 days of incubation. As to the method: (§1) Example E. Cellular Growth Inhibition Assay
(§2) Ba/F3(Empty vector) (Signosis), Ba/F3(Wild type) (Signosis), Ba/F3(L^858R+T790M) (Signosis), Ba/F3(A767_dupASV) (Signosis), Ba/F3(D770_N771insSVD) (Signosis), Ba/F3(H773_V774insNPH) (Signosis) were seeded at a density of 4000 cells per well in a CellBIND® 384-well Flat Clear Bottom Black Polystyrene Microplates (Coming, USA, Cat #3770) in 45 μl total volume of RPMI (PanEco, Cat #C330, Russia) with […] (HyClone, Cat #SV30160.03) and with 10 ng/ml rmIL-3 (RD systems, USA, Cat #403-ML-025) (for BaBF3(Empty vector)) and with 10 ng/ml rhEGF (ThermoFisher, USA, Cat #PHG0311L) (for BaCF3(Wild type)). 500× compounds solutions in DMSO (Sigma Cat #D2650) were prepared into Cmpnds plate (DiamondWell Plate, Axigen, Cat #P-384-120SQ-C—S) and DMSO only control was included. 1.l of 500× compounds (Cmpnds plate) was added to 49 µl of culture medium into Dilution plate (Diamond Well Plate, Axigen, Cat #P-384-120SQ-C—S), mixed and then 5 μl of 10× compounds solutions were transferred to cells followed by centrifugation at 100 g for 1 min. Final DMSO concentration was 0.2% o. After 3 days of incubation 10.l of CellTiter-Glo (Promega, CAT #G7572) were added to the cells, plate was centrifuged at 100 g for 1 min and luminescence signal was measured using Microplate Reader (CLARIOStar).

The next data set deals with Ba/F3 (D770_N771insSVD). The data set is described as follows: Cellular growth inhibition assay (CellTiter-Glo), Ba/F3 (D770_N771insSVD). The note with it: Mus musculus, BaF3, 72 h; 3 days of incubation; read-out: Ba/F3 (D770_N771 insSVD) CC50. As to the method:
as §1, §2

A short description of data set [1]: Cellular growth inhibition assay (CellTiter-Glo), Ba/F3 (Empty vector). To be noted: mouse, Ba/F3 cells with empty vector; Ba/F3 (Empty vector) with 10 ng/ml rmIL-3, 3 days of incubation. As to the method: as §1, §2
In the next data set the test system is Ba/F3 (EGFRwt). The data set is described as follows: Cellular growth inhibition assay (CellTiter-Glo), Ba/F3 (EGFRwt). The note with it: Mus musculus, BaF3, 72 h; Ba/F3 (Wild type) with 10 ng/ml rhEGF, 3 days of incubation. The protocol:
as §1, §2

The subject of the next data set is Ba/F3 (A767_dupASV). The data set is described as follows: Cellular growth inhibition assay (CellTiter-Glo), Ba/F3 (A767_dupASV). The note with it: Mus musculus, BaF3, 72 h; 3 days of incubation; read-out: Ba/F3 (A767_dup ASV) CC50. The protocol: as §1, §2
For another data set, the system named is Ba/F3 (H773_V774insSVD). Put plainly: Cellular growth inhibition assay (CellTiter-Glo), Ba/F3 (H773_V774insSVD). The note with it: Mus musculus, BaF3, 72 h; 3 days of incubation; read-out: Ba/F3 (H773_V774 insSVD) CC50.

For the compound `COc1c(F)cccc1Nc1c2[nH]c3c1C(=O)NCC3CC(=O)N(C)CC(=O)NCCCOc1cnccc1-2` (stereo not drawn) [Compound 149, 21-(3-fluoro-2-methoxyanilino)-12-methyl-6,7,8,9,11,12,14,14a,15,16-decahydro-18,20-(metheno)dipyrido[3,4-k: 4′,3′-o][1,5,8,13]oxatriazacyclohexadecine-10,13,17(19H)-trione], the CC50 in the data set on Ba/F3 (L858R + T790M) is over 10 µM; with Ba/F3 (D770_N771insSVD), 1 to 10 µM; in the data set on Ba/F3 (EGFRwt) it was over 10 µM; with Ba/F3 (A767_dupASV) it was 1 to 10 µM; in the data set on Ba/F3 (H773_V774insSVD) it was over 10 µM. Also, the CC50 at 3 days in data set [1] is over 10 µM.

As for `COc1c(F)cccc1Nc1c2[nH]c3c1C(=O)NCC3CC(=O)NCC(=O)NCCCOc1cnccc1-2` (stereo not drawn) [Compound 132, 21-(3-fluoro-2-methoxyanilino)-6,7,8,9,11,12,14,14a,15,16-decahydro-18,20-(metheno)dipyrido[3,4-k: 4′,3′-o][1,5,8,13]oxatriazacyclohexadecine-10,13,17(19H)-trione], the CC50 with Ba/F3 (L858R + T790M) is over 10 µM; with Ba/F3 (D770_N771insSVD), over 10 µM; in the data set with Ba/F3 (EGFRwt), over 10 µM; in the data set on Ba/F3 (A767_dupASV) it was 1 to 10 µM; with Ba/F3 (H773_V774insSVD), over 10 µM. In data set [1], this compound displayed a CC50 at 3 days of over 10 µM.

Turning to `COc1c(F)cccc1Nc1c2[nH]c3c1C(=O)NC[C@@H]3CC(=O)N1CCC[C@H]1C(=O)NCCCOc1cnccc1-2` [Compound 147, (16aS,22aS)-23-(3-fluoro-2-methoxyanilino)-14,15,16a,17,18,19,22,22a-octahydro-2H,12H-4,6-(metheno)dipyrido[3,4-k: 4′,3′-o]pyrrolo[2,1-g][1,5,8,13]oxatriazacyclohexadecine-3,16,21(1H,5H,13H)-trione], the CC50 in the data set on Ba/F3 (L858R + T790M), with Ba/F3 (D770_N771insSVD), with Ba/F3 (EGFRwt), with Ba/F3 (A767_dupASV) and with Ba/F3 (H773_V774insSVD) was over 10 µM in each case. This compound also registered a CC50 at 3 days in data set [1] of over 10 µM.

Turning to `COc1c(F)cccc1Nc1c2[nH]c3c1C(=O)NC[C@@H]3CCCN1CCO[C@H](COc3cnccc3-2)C1` [Compound 157, (7S)-21-[(3-Fluoro-2-methoxyphenyl)amino]-6,7,9,10,12,13,14,14a,15,16-decahydro-7,11-methano-18,20-methenodipyrido[3,4-k:4′,3′-o][1,4,7,13]dioxadiazacyclohexadecin-17(19H)-one], the CC50 with Ba/F3 (L858R + T790M), in the data set with Ba/F3 (D770_N771insSVD), with Ba/F3 (EGFRwt), in the data set with Ba/F3 (A767_dupASV) and in the data set with Ba/F3 (H773_V774insSVD) was over 10 µM throughout. The same compound showed a CC50 at 3 days in data set [1] of over 10 µM.

For `COc1c(F)cccc1Nc1c2[nH]c3c1C(=O)NC(CC=CCOCCOc1cnccc1-2)C3` (stereo not drawn) [Compound 128, 20-(3-fluoro-2-methoxyanilino)-2,3,5,8,9,10-hexahydro-9,13-methano-12,15-(metheno)pyrido[3,4-e][1,4,8,12]dioxadiazacycloheptadecin-11(14H)-one], the CC50 in the data set on Ba/F3 (L858R + T790M) was over 10 µM; in the data set with Ba/F3 (D770_N771insSVD) it was over 10 µM; in the data set on Ba/F3 (EGFRwt) it was 1 to 10 µM; with Ba/F3 (A767_dupASV), 1 to 10 µM; in the data set with Ba/F3 (H773_V774insSVD), over 10 µM. Further, the CC50 at 3 days in data set [1] was over 10 µM.

As for `COc1c(F)cccc1Nc1c2[nH]c3c1C(=O)NCC3CC(=O)NCCOCCOCCOc1cnccc1-2` (stereo not drawn) [Compound 150, 23-(3-fluoro-2-methoxyanilino)-6,7,9,10,13,14,16,16a,17,18-decahydro-20,22-(metheno)dipyrido[3,4-m: 4′,3′-q][1,4,7,10,15]trioxadiazacyclooctadecine-15,19(12H,21H)-dione], the CC50 in the data set with Ba/F3 (L858R + T790M), in the data set with Ba/F3 (D770_N771insSVD), with Ba/F3 (EGFRwt), in the data set on Ba/F3 (A767_dupASV) and in the data set on Ba/F3 (H773_V774insSVD) was over 10 µM in each case. Besides, the CC50 at 3 days in data set [1] was over 10 µM.

Consider `COc1c(F)cccc1Nc1c2[nH]c3c1C(=O)NCC3CCCOCCN(C)CCCOc1cnccc1-2` (stereo not drawn) [Compound 145, 22-(3-fluoro-2-methoxyanilino)-9-methyl-6,7,8,9,10,11,13,14,15,15a,16,17-dodecahydro-19,21-(metheno)dipyrido[3,4-i: 4′,3′-m][1,8,4,12]dioxadiazacycloheptadecin-18(20H)-one], for which the CC50 in the data set with Ba/F3 (L858R + T790M) was over 10 µM; in the data set with Ba/F3 (D770_N771insSVD), 0.01 to 0.1 µM; in the data set on Ba/F3 (EGFRwt), over 10 µM; with Ba/F3 (A767_dupASV) it was 0.01 to 0.1 µM; in the data set with Ba/F3 (H773_V774insSVD), 0.1 to 1 µM. For the same compound, the CC50 at 3 days in data set [1] was over 10 µM.

Turning to `COc1c(F)cccc1Nc1c2[nH]c3c1C(=O)NCC3CCCCCCC(=O)N1CCCC(COc3cnccc3-2)C1` (stereo not drawn) [Compound 119, 25-[(3-Fluoro-2-methoxyphenyl)amino]-7,8,9,10,14,15,16,17,18,18a,19,20-dodecahydro-6H-7,11-methano-22,24-methenodipyrido[3,4-b:4′,3′-f][1,5,15]oxadiazacycloicosine-12,21(13H,23H)-dione], the CC50 in the data set with Ba/F3 (L858R + T790M) is over 10 µM; with Ba/F3 (D770_N771insSVD), 1 to 10 µM; in the data set on Ba/F3 (EGFRwt) it was 1 to 10 µM; in the data set with Ba/F3 (A767_dupASV), 0.1 to 1 µM; in the data set with Ba/F3 (H773_V774insSVD), over 10 µM. The compound further showed a CC50 at 3 days in data set [1] of over 10 µM.

Values taken from patent publication US20250282795A1, “EGFR Inhibitors in cancer treatment” (Celyn Therapeutics, Inc., priority 2022, published 2025).
